Data on 27 molecules can be found in PubChem BioAssay (NCI).

Test in all cases: NCI-60 cell line screen, 48 h
For assay [1], the system named is SK-MEL-2 melanoma.
Assay [2] relates to KM20L2 colon.
For assay [3], the system named is SW-620 colon.
Assay [4] concerns OVCAR-8 ovarian.
Assay [5] concerns HOP-62 NSCLC.
The test system of assay [6] is SNB-78 CNS.
Assay [7] has as its system HOP-18 NSCLC.
The subject of assay [8] is DLD-1 colon.
Assay [9] has as its system CCRF-CEM leukemia.
The subject of assay [10] is XF 498 CNS.
In assay [11] the test system is DMS 114 small cell lung.
Assay [12] relates to M19-MEL melanoma.
The subject of assay [13] is LXFL 529 NSCLC.
Assay [14] concerns DMS 273 small cell lung.

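Values below derive from 48-hour exposures of cells grown in 96-well plates, with endpoints linearly interpolated between the two concentrations bracketing the appropriate inhibition level. TGI: concentration producing complete growth inhibition.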 Bounds are passed on as bounds.

Take `O=C(N/N=C/c1cc(Br)cc(Br)c1[O-])c1ccccc1O.O=C(N/N=C/c1cc(Br)cc(Br)c1[O-])c1ccccc1O.[Zn+2]`: the TGI came out at 12 µM in [1]; 6.57 µM in assay [2]; 19.5 µM in assay [3]; 10.5 µM in [4]; 4.5 µM in assay [5].

With `COc1cc(OC)cc(-c2cc(=O)c3cc4c(cc3[nH]2)OCO4)c1`, the TGI in [1] was 4.46 µM; in assay [6], above 89.2 µM; in assay [7], above 75.6 µM; in [8], 36.4 µM; in assay [9], 4.56 µM; in assay [10], 2.58 µM. The TGI in assay [2] was 0.652 µM; in assay [11] it was 0.726 µM; in assay [3] it was above 100 µM; in assay [4], 9.55 µM; in assay [12] it was above 100 µM; in [5], 17.9 µM. Also, the TGI was 20.6 µM in assay [13] and 3.31 µM in [14].

`S=c1ncc2c([nH]1)C1c3ccccc3C2c2ccccc21`: the TGI in assay [1], in assay [6], in [9], in assay [2], in [11] and in assay [3] was above 100 µM in each case. Moreover, the TGI in [4], in [12], in [5], in assay [13] and in assay [14] was above 100 µM each time.

Turning to `O=C1O[C@H]2[C@H](OC(=O)c3cc(O)c(O)c(O)c3)[C@@H](OC(=O)c3cc(O)c(O)c4c3[C@@H]3C1=CC(=O)C(O)(O)C3(O)O4)[C@H](OC(=O)c1cc(O)c(O)c(O)c1)O[C@@H]2COC(=O)c1cc(O)c(O)c(O)c1` (some centres undefined), the TGI in [1], in assay [9], in [3], in assay [4] and in assay [5] was above 100 µM each time.

Take `CCCSc1ccc2[nH]c(N3C(=O)/C(=C/c4ccc(SC)cc4)N=C3c3ccccc3)cc2c1`: the TGI was above 38.5 µM in assay [1]; above 45.8 µM in assay [9]; above 50 µM in assay [3]; above 50 µM in [4]; above 50 µM in assay [5].

With `COC(=O)c1cc(NC(=O)Cc2c[nH]c3ccccc23)cn1C`, the TGI in assay [1], in [9], in assay [3], in assay [4] and in assay [5] was above 100 µM in each case.

On to `O=C1NN(Cc2ccccc2)C(=O)N2CCC[C@@H]12`, for which the TGI in assay [1], in assay [9], in assay [3], in [4] and in assay [5] was above 100 µM in each case.

As for `COC(C)(C)/C=C/c1[nH]c2ccccc2c1CC(=O)NCCc1cn(C(c2ccccc2)(c2ccccc2)c2ccccc2)cn1`, the TGI is 6.45 µM in assay [1]; above 100 µM in assay [9]; above 100 µM in [3]; above 100 µM in [4]; 34.4 µM in assay [5].

On to `O=C1Nc2nccnc2C(=O)N2CCC[C@@H]12`, for which the TGI in assay [1], in [9], in assay [3], in assay [4] and in [5] was above 100 µM in each case.

On to `CC(C)=CCC[C@@H](C)C1=C(O)C(Nc2ccccc2Cl)=C(C)C(=O)C1=O`, for which the TGI in assay [1] was 46.7 µM; in [9], above 21.3 µM; in assay [3] it was above 75 µM; in [4], above 41 µM; in assay [5], above 64.2 µM.

`Cn1cc2ccccc2c1-c1nc(F)nc(Oc2ccc3c(c2)CC[C@@H]2C3CC[C@@]3(C)C2C[C@H](O)[C@@H]3O)n1` (some centres undefined): the TGI in [1] is 38.1 µM; in [6], 54.2 µM; in assay [7], 54.8 µM; in [8], 22.1 µM; in [9], 6.43 µM; in assay [10] it was 60.3 µM. Also, the TGI in [2] came to 29.4 µM; in assay [11], 25 µM; in assay [3], 15.8 µM; in assay [4], 34.1 µM; in assay [12] it was 41.9 µM; in assay [5], 18.7 µM. In addition, the TGI in [13] was 27.4 µM; in assay [14], 22 µM.

On to `CC(=O)NCC1OC2COC(c3ccccc3)OC2C(NC(=O)c2ccccc2)C1OC(=O)c1ccccc1` (centres undefined), for which the TGI in assay [1], in [9], in assay [3], in [4] and in assay [5] was above 100 µM in each case.

As for `CC1=CC[C@@]2(C)CC[C@](O)(C(C)C)C2C(OC(=O)c2ccccc2)C1` (some centres undefined), the TGI is 32.2 µM in [1]; 54.7 µM in assay [9]; 54.4 µM in assay [3]; 37.5 µM in assay [4]; 33.7 µM in assay [5].

In the case of `CCOC(=O)c1nc2ccc(C(F)(F)F)cc2nc1NCc1ccc(OC)c(OC)c1`, the TGI in assay [1] is 86.1 µM; in assay [9], above 100 µM; in assay [3], above 100 µM; in assay [4], above 100 µM; in assay [5] it was above 100 µM.

For `CC(C)=CCCC(C)CCOS(=O)C(F)(F)F` (centres undefined), the TGI in assay [1] is 36.5 µM; in [9], above 100 µM; in assay [3] it was above 100 µM; in [4], above 100 µM; in assay [5], above 100 µM.

In the case of `Cc1ccc2nc(C(C)C)c(=O)[nH]c2c1`, the TGI in assay [1] is 28.2 µM; in [9], above 100 µM; in assay [3] it was above 100 µM; in assay [4], above 100 µM; in [5], 30.9 µM.

For the molecule `N[C@@H]1CCN(c2c(F)cc3c(=O)c(C(=O)O)cn4c3c2Oc2cc3c(ccc5ccccc53)cc2-4)C1`, the TGI in [1] was above 78 µM; in [9], 0.234 µM; in assay [3], above 100 µM; in assay [4] it was 18.1 µM; in [5], above 100 µM.

Consider `CCOC(=O)CC(NC(=O)c1[nH]cnc1/N=N/N(C)C)C(=O)OCC` (centres undefined), for which the TGI in [1], in assay [8], in assay [9], in assay [11], in assay [3] and in assay [4] was above 100 µM in each case. Further, the TGI in assay [12], in assay [5], in [13] and in assay [14] was above 100 µM in each case.

Consider `CC(=O)OCC(=O)OC[C@H](OCc1ccccc1)[C@@H]1[C@H](OC(C)=O)C(=O)N1Cc1ccccc1`, for which the TGI in assay [1], in [9], in assay [3], in [4] and in assay [5] was above 100 µM each time.

For `O=C1/C(=C/c2ccccc2[N+](=O)[O-])N=C(c2ccccc2)N1c1nc2ccccc2s1`, the TGI in assay [1] is above 100 µM; in assay [9] it was 0.681 µM; in assay [3], above 100 µM; in assay [4], 39.7 µM; in [5], 72.2 µM.

On to `CCOC(=O)c1nc2cc(C(F)(F)F)ccc2nc1Nc1ccc(C(=O)OC)s1`, for which the TGI in assay [1] is 43.5 µM; in assay [9] it was above 100 µM; in assay [3] it was above 100 µM; in [4] it was above 100 µM; in [5] it was above 100 µM.

In the case of `O=C(c1ccccc1)N1CCC(CC2(c3cc4ccccc4[nH]3)OCCO2)CC1`, the TGI in assay [1] was 73.6 µM; in assay [9] it was above 100 µM; in assay [3], above 100 µM; in [4], above 100 µM; in assay [5] it was above 100 µM.

In the case of `CCOP(=O)(OCC)C(NC(=O)C(C(F)(F)F)C(F)(F)F)c1ccccc1` (centres undefined), the TGI in assay [1], in assay [9], in assay [3], in assay [4] and in [5] was above 100 µM in each case.

For the molecule `O=C1CCc2ccc(O)c(c2)Oc2ccc(cc2)C(Sc2ccccc2)CCO1` (centres undefined), the TGI in [1] is 37.3 µM; in assay [9], above 100 µM; in assay [3], 34.9 µM; in [4] it was 37.3 µM; in [5] it was 30.9 µM.

For the molecule `O=C(CSCC(=O)N/N=C\c1cccc([N+](=O)[O-])c1)N/N=C\c1cccc([N+](=O)[O-])c1`, the TGI in [1] was above 100 µM; in [9], above 100 µM; in [3] it was above 100 µM; in [4], above 100 µM; in assay [5] it was 16.3 µM.

For `COc1ccccc1/C=C/C1=NN(c2cccc(S(=O)(=O)O)c2)C2(C1)C(Cl)C(=O)N2c1nc2ccccc2s1` (centres undefined), the TGI was above 100 µM in assay [1]; 33.1 µM in assay [9]; above 100 µM in assay [3]; above 100 µM in assay [4]; above 100 µM in [5].

Turning to `O=C(NNC(=S)NC1CCCCC1)C12CC3CC(CC(C3)C1)C2`, the TGI in assay [1], in assay [9], in [3], in assay [4] and in assay [5] was above 100 µM each time.
